In patent US12312308B2, “Salts and esters of APX3330 and therapeutic uses thereof” (Opus Genetics, Inc., priority 2022, dated 2025):
Counter-ions that a name gives are not always drawn.

Test: Dynamic vapor sorption (DVS) analysis
Assay type: physicochemical

maximum water adsorption (DVS, at 82% RH): about 1.52%
water retained at the end of the desorption branch (DVS, end of desorption branch): 0.19%
crystalline form after DVS (subsequent XRPD analysis) (post-DVS sample vs pre-DVS sample, XRPD): maintained the same crystalline form
SMILES: CCCCCCCCC/C(=C\C1=C(C)C(=O)C(OC)=C(OC)C1=O)C(=O)O [Compound 1 calcium salt]
